# Data reported in patent US20090192192A1, “INHIBITORS OF BIOFILM FORMATION OF GRAM-POSITIVE AND GRAM-NEGATIVE BACTERIA” (priority 2007, published 2009).
# System: Pseudomonas aeruginosa PAO1
# Assay: MBEC assay, biofilm formation of P. aeruginosa PAO1
# Assay type: cell-based
# Settings: compound concentration 100 μM, class symbols
# Procedure: The compound to be tested was dissolved in DMSO to obtain a concentration that was 100 times that of the final concentration required (1 mM for the 10 μM assay and 10 mM for the 100 μM assay). 1.5 μL of the above solution was placed into each well of a 96 well plate (final volume in each well=150 μL, final DMSO concentration of 1% (v/v)).
# To grow the organism and form a biofilm, a cryogenic stock of the test organism (at −70° C.) was used. A first sub-culture was streaked out onto TSA (tryptic soy agar), upon which the plate was incubated at 35±2° C. for 24 hours and stored wrapped in parafilm at 4° C. afterwards. From this first sub-culture, a second sub-culture was streaked out onto TSA. The plate was incubated at 35±2° C. for 24 hours. The second sub-culture was used within 24 hours starting from the time it was first removed from incubation. Using the second sub-culture an inoculum in 3 mL sterile water that matches a 0.5 McFarland Standard (1.5×10^8 cells per mL) was created in a glass test tube using a sterile cotton swab. 2.2 mL of this solution was diluted in 22 mL 100% TSB (tryptic soy broth) medium to a cell density of approximately […]. The diluted organism was inverted 3-5 times to achieve uniform mixing of the organism. One sample (100 μl) of the diluted organism was used for an inoculum check by serially diluting and spot plating on TSA.
# To prepare a challenge plate, […] of the diluted organism was added to each well of a 96 well plate except the sterility control wells. The test compounds were added to the wells to make up final concentrations of 10 μM and […] (1.5 μL/well) in the designated location in the test plate. 128.5 μL of 100% universal neutralizer (1% Tween 80 in Cation Adjusted Mueller Hinton Broth, CAMHB) was placed in each of the wells. 130 μL of media was added to the growth control wells. 128.5 μL of media+1.5 μL of DMSO were added to a second set of growth control wells. 150 μL of media was added to the sterility controls. Each sample was run in triplicate. The plate was covered by a lid with a peg per well and wrapped in parafilm and placed on a shaker in a humidified incubator (GeneVac) at 35±+2° C. for 24 hours set at 110 rpm.
# Rinse plate(s) of 0.9% saline (200 μL per well) were prepared in a sterile 96 well microtitre plate. Lid-associated pegs were rinsed in 0.9% saline for approximately 1-2 minutes. The peg lid was transferred to the recovery media (1.0% Tween 80 in CAMHB) then sonicated for 30 minutes to dislodge surviving biofilm. Following sonication, 100 μL from each well of the 96 well plate was placed into the first 12 wells of the first row of a 96 well microtiter plate. 180 μl of 0.9% sterile saline was placed in the remaining rows. A serial dilution (10^0-10^7) was prepared by moving 20 μl down each of the 8 rows. 20 μl from each well was removed and spot plated on a prepared TSA. In the remaining recovery plate, 100 μl of fresh growth media (1.0% Tween 80 in CAMHB) was placed in each well to replace the amount removed. The recovery plate was covered with a regular lid and incubated at 35±2° C. for 24 hours and read visually to confirm antimicrobial activity of the test compounds.
# The compounds of the present disclosure have been tested regarding their efficiency to inhibit biofilm formation of Staphylococcus aureus U of C#18 (MRSA), Staphylococcus aureus 456 (MRSA), Staphylococcus epidermidis RP62A, and Pseudomonas aeruginosa PAO1.
row,SMILES,inhibition at 100 µM [%]
1,"CCCCCCCCCC(=O)N[C@@H]1CCCC[C@H]1O (relative stereo) [Example 34, trans-N-(2-hydroxycyclohexyl)decanamide]",20 to 50
2,"CCCCCCCCCCCC(=O)N[C@@H]1CCCC[C@H]1O (relative stereo) [Example 35, trans-N-(2-hydroxycyclohexyl)dodecanamide]",20 to 50
3,"CCCCCCCCCC(=O)N[C@H]1CCC[C@H]1C(=O)O (relative stereo) [Example 36, cis-2-decanamidocyclopentanecarboxylic acid]",< 20
4,"CCCCCCCCCCCC(=O)Nc1ccccc1 [Example 13, N-phenyldodecanamide]",< 20
5,"CCCCCCCCCCCC(=O)N(C)c1ccccc1 [Example 14, N-methyl-N-phenyldodecanamide]",> 50
6,"CCCCCCCCCCCC(=O)Nc1ccccc1F [Example 15, N-(2-fluorophenyl)dodecanamide]",< 20
7,"CCCCCCCCCCCC(=O)N(C)c1ccccc1F [Example 16, N-(2-fluorophenyl)-N-methyldodecanamide]",> 50
8,"CCCCCCCCCCCC(=O)Nc1cccc(F)c1 [Example 17, N-(3-fluorophenyl)dodecanamide]",20 to 50
9,"CCCCCCCCCCCC(=O)N(C)c1cccc(F)c1 [Example 18, N-(3-fluorophenyl)-N-methyldodecanamide]",> 50
10,"CCCCCCCCCCCC(=O)Nc1ccc(F)cc1 [Example 19, N-(4-fluorophenyl)dodecanamide]",< 20
11,"CCCCCCCCCCCC(=O)N(C)c1ccc(F)cc1 [Example 20, N-(4-fluorophenyl)-N-methyldodecanamide]",> 50
12,"CCCCCCCCCCCC(=O)Nc1ccc(F)cc1F [Example 21, N-(2,4-difluorophenyl)dodecanamide]",< 20
13,"CCCCCCCCCCCC(=O)N(C)c1ccc(F)cc1F [Example 22, N-(2,4-difluorophenyl)-N-methyldodecanamide]",> 50
14,"CCCCCCCCCCCC(=O)Nc1ccccc1C(F)(F)F [Example 23, N-(2-(trifluoromethyl)phenyl)dodecanamide]",< 20
15,"CCCCCCCCCCCC(=O)Nc1ccc(F)cc1C(F)(F)F [Example 24, N-(4-fluoro-2-(trifluoromethyl)phenyl)dodecanamide]",< 20
16,"CCCCCCCCCCCC(=O)Nc1ccccc1C(=O)O [Example 25, 2-dodecanamidobenzoic acid]",> 50
17,"CCCCCCCCCCCC(=O)N(C)c1ccccc1C(=O)O [Example 26, 2-(N-methyldodecanamido)benzoic acid]",20 to 50
18,"CCCCCCCCCCCC(=O)Nc1ccccc1S(=O)(=O)O [Example 27, 2-dodecanamidobenzenesulfonic acid]",20 to 50
19,"CCCCCCCCCCCC(=O)N[C@@H](C)c1ccccc1 [Example 28, (S)-N-(1-phenylethyl)dodecanamide]",20 to 50
20,"CCCCCCCCCC(=O)NCc1ccco1 [Example 29, N-(furan-2-ylmethyl)decanamide]",20 to 50
21,"CCCCCCCCCCCC(=O)Nc1cc(C)nn1C(C)(C)C [Example 30, N-(1-tert-butyl-3-methylpyrazol-5-yl)dodecanamide]",> 50
22,"CCCCCCCCCCCC(=O)Nc1cc(C)nn1-c1ccccc1 [Example 31, N-(3-methyl-1-phenylpyrazol-5-yl)dodecanamide]",< 20
23,"CCCCCCCCCC(=O)N[C@H]1CCOC1=O [Example 32, N-decanoyl-L-homoserinelactone]",< 20
24,"CCCCCCCCCCCC(=O)N[C@H]1CCOC1=O [Example 33, N-dodecanoyl-L-homoserinelactone]",< 20
25,"CCCCCCCCCCCC(=O)N1CCCCC1CO (centres unmarked) [Example 37, 1-(2-(hydroxymethyl)piperidin-1-yl)dodecan-1-one]",> 50

row,SMILES,inhibition at 100 µM [%]
1,"CCCCNC(=O)Nc1cc(C)nn1C [Example 38, 1-butyl-3-(1,3-dimethylpyrazol-5-yl)urea]",< 20
2,"CCCCNC(=O)Nc1cc(C2CC2)nn1C [Example 39, 1-butyl-3-(3-cyclopropyl-1-methylpyrazol-5-yl)urea]",< 20
3,"CCCCNC(=O)Nc1cc(C(C)(C)C)nn1C [Example 40, 1-butyl-3-(3-tert-butyl-1-methylpyrazol-5-yl)urea]",< 20
4,"CCCCCCNC(=O)Nc1cc(C)nn1C [Example 41, 1-(1,3-dimethylpyrazol-5-yl)-3-hexylurea]",< 20
5,"CCCCCCNC(=O)Nc1cc(C2CC2)nn1C [Example 42, 1-(3-cyclopropyl-1-methylpyrazol-5-yl)-3-hexylurea]",20 to 50
6,"CCCCCCNC(=O)Nc1cc(C(C)(C)C)nn1C [Example 43, 1-(3-tert-butyl-1-methylpyrazol-5-yl)-3-hexylurea]",20 to 50
7,"CCCCCCCCNC(=O)Nc1cc(C)nn1C [Example 44, 1-(1,3-dimethylpyrazol-5-yl)-3-octylurea]",20 to 50
8,"CCCCCCCCNC(=O)Nc1cc(C2CC2)nn1C [Example 45, 1-(3-cyclopropyl-1-methylpyrazol-5-yl)-3-octylurea]",20 to 50
9,"CCCCCCCCNC(=O)Nc1cc(C(C)(C)C)nn1C [Example 46, 1-(3-tert-butyl-1-methylpyrazol-5-yl)-3-octylurea]",> 50
10,"CCCCCCCCCCNC(=O)Nc1ccccc1 [Example 48, 1-decyl-3-phenylurea]",< 20
11,"CCCCCCCCCCNC(=O)Nc1ccccc1F [Example 49, 1-decyl-3-(2-fluorophenyl)urea]",< 20
12,"CCCCCCCCCCNC(=O)N(C)c1ccccc1F [Example 50, 3-decyl-1-(2-fluorophenyl)-1-methylurea]",20 to 50
13,"CCCCCCCCCCNC(=O)Nc1cccc(F)c1 [Example 51, 1-decyl-3-(3-fluorophenyl)urea]",< 20
14,"CCCCCCCCCCNC(=O)N(C)c1cccc(F)c1 [Example 52, 3-decyl-1-(3-fluorophenyl)-1-methylurea]",20 to 50
15,"CCCCCCCCCCNC(=O)Nc1ccc(F)cc1 [Example 53, 1-decyl-3-(4-fluorophenyl)urea]",< 20
16,"CCCCCCCCCCNC(=O)N(C)c1ccc(F)cc1 [Example 54, 3-decyl-1-(4-fluorophenyl)-1-methylurea]",> 50
17,"CCCCCCCCCCNC(=O)Nc1ccc(F)cc1F [Example 55, 1-decyl-3-(2,4-difluorophenyl)urea]",< 20
18,"CCCCCCCCCCNC(=O)N(C)c1ccc(F)cc1F [Example 56, 3-decyl-1-(2,4-difluorophenyl)-1-methylurea]",< 20
19,"CCCCCCCCCCNC(=O)Nc1ccccc1C(F)(F)F [Example 57, 1-decyl-3-(2-(trifluoromethyl)phenyl)urea]",20 to 50
20,"CCCCCCCCCCNC(=O)N(C)c1ccccc1C(F)(F)F [Example 58, 3-decyl-1-methyl-1-(2-(trifluoromethyl)phenyl)urea]",> 50
21,"CCCCCCCCCCNC(=O)N[C@@H](C)c1ccccc1 [Example 59, (S)-1-decyl-3-(1-phenylethyl)urea]",< 20
22,"CCCCCCCCCCNC(=O)N(C)[C@H](C)c1ccccc1 [Example 60, (R)-3-decyl-1-methyl-1-(1-phenylethyl)urea]",> 50
23,"CCCCCCCCCCNC(=O)Nc1ccnn1C [Example 61, 1-decyl-3-(1-methylpyrazol-5-yl)urea]",20 to 50
24,"CCCCCCCCCCNC(=O)Nc1cc(C)ns1 [Example 62, 1-decyl-3-(3-methylisothiazol-5-yl)urea]",< 20
25,"CCCCCCCCCCNC(=O)Nc1cc(C)nn1C [Example 63, 1-decyl-3-(1,3-dimethylpyrazol-5-yl)urea]",20 to 50
